Test results from patent US20060074108A1, “Matrix metalloprotease (MMP) inhibitors and their application in cosmetic and pharmaceutical composition” (Bioderm Research, priority 2004, published 2006).

Assays:
TRP-2 = assay: tyrosinase enzyme based model: inhibition of color formation from the action of TRP-2 on tyrosine, spectrophotometric rate kinetics; type: biochemical; conditions: TRP-2 model extended as predictive to MMP-2 and MMP-9 inhibition, wound healing application
From the text: It is based on the inhibition of a tyrosinase enzyme based model system, for example Canters et al., “Kinetic and paramagnetic NMR investigations of the inhibition of Streptomyces antibioticus tyosinase”, Journal of Molecular Catalysis, B: Enzymatics, vol. 8, 27-35 (2000). Tyrosinase is a copper-based monooxygenase enzyme that catalyzes the hydroxylation of monophenols (hydroxybenzenes) and the oxidation of ortho-diphenols to ortho-quinones. The active-site of tyrosinase is known to contain two copper ions (CuA and CuB). […] The regions around these copper-binding ligands are well conserved. Moreover, the distance between these two copper ions is […] [(van Amsterdam et al., Angewandte Chemie, 42: 62-64 (2003); Bubacco et al., J. Biol. Chem., 181-194 (2003)]. At least two proteins related to tyrosinase are known to exist in mammals, and include TRP-1, which is responsible for the conversion of 5,6-dihydroxyindole-2-carboxylic acid (DHICA) to indole-5,6-quinone-2-carboxylic acid (IQCA) or indole-5,6-quinone (IQ); and TRP-2, which is the melanogenic enzyme DOPAchrome tautomerase that catalyzes the conversion of DOPAchrome to DHICA. TRP-2 differs from tyrosinases and TRP-1 in that it binds two zinc ions instead of copper. Other proteins that belong to this family are plant polyphenol oxidases (PPO), which catalyze the oxidation of mono- and ortho-diphenols to ortho-diquinone. […] The colorless tyrosine is converted into yellow/orange colored ortho-diquinone of tyrosine, which is spectrophotometrically quantitated and its rate kinetics thus established.

MMP-13 = MMP-13 (Homo sapiens, UniProt P45452); conditions: in words; cited from earlier work
MMP-9 = MMP-9 (Homo sapiens, UniProt P14780); conditions: in words; cited from earlier work
MMP-1 = target: T1, MMP-1 (Homo sapiens, UniProt P03956); conditions: in words; cited from earlier work
T1 sequence (P03956 100-469): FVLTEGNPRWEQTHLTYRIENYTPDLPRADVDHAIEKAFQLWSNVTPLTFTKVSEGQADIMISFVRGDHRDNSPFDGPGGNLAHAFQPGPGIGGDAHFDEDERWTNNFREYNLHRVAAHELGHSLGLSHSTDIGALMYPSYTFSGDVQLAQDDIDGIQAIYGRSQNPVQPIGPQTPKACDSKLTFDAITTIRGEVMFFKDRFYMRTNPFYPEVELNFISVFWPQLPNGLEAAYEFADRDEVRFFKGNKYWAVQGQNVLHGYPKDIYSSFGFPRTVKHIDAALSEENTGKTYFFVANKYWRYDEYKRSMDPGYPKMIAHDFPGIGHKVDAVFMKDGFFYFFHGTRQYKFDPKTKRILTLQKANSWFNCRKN

Chain of MMP-9 (P14780 94-707, species assumed): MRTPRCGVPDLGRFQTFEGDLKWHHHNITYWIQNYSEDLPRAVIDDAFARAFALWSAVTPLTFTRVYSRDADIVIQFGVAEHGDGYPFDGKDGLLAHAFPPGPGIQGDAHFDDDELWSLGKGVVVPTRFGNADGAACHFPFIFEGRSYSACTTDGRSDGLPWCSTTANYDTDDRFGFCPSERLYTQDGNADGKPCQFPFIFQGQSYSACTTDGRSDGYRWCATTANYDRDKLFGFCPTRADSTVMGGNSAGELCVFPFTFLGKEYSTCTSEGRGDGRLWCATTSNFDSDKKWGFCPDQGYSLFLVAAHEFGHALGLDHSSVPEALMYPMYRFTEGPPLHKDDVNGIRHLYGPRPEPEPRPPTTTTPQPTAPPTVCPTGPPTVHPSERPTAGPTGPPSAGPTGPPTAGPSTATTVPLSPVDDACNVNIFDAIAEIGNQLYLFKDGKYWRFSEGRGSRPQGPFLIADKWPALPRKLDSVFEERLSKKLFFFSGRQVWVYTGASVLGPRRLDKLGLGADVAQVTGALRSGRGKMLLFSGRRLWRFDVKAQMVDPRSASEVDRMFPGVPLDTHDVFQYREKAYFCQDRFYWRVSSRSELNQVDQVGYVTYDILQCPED

For CC(=NO)c1ccc(O)cc1O [2,4-Dihydroxyacetophenone Oxime], the “order of efficacy (oxime derivatives)” value (TRP-2) was 2,5-Dihydroxyacetophenone Oxime>2,4-Dihydroxyacetophenone Oxime>2-Hydroxy-4-methoxyaceophenone Oxime.
With CC(=O)c1ccc(O)cc1O [2,4-Dihydroxyacetophenone] the “order of efficacy (acetophenones)” value (TRP-2) was 2,5-Dihydroxyacetophenone>2,4-Dihydroxyacetophenone>2-Hydroxy-4-methoxyaceophenone.
For CC(=NO)c1cc(O)ccc1O [2,5-Dihydroxyacetophenone Oxime], the “order of efficacy (oxime derivatives)” value (TRP-2) was 2,6-Dihydroxyacetophenone Oxime>2,5-Dihydroxyacetophenone Oxime>2,4-Dihydroxyacetophenone Oxime.
With CC(=O)c1cc(O)ccc1O [2,5-Dihydroxyacetophenone] the “order of efficacy (acetophenones)” value (TRP-2) was 2,6-Dihydroxyacetophenone>2,5-Dihydroxyacetophenone>2,4-Dihydroxyacetophenone.
With CC(=NO)c1c(O)cccc1O [2,6-Dihydroxyacetophenone Oxime] the “order of efficacy (oxime derivatives)” value (TRP-2) was 2,6-Dihydroxyacetophenone Oxime>2,5-Dihydroxyacetophenone Oxime.
With CC(=O)c1c(O)cccc1O [2,6-Dihydroxyacetophenone] the “order of efficacy (acetophenones)” value (TRP-2) was 2,6-Dihydroxyacetophenone>2,5-Dihydroxyacetophenone.
In the case of COc1ccc(C(C)=NO)c(O)c1 [2-Hydroxy-4-methoxyaceophenone Oxime], the “order of efficacy (oxime derivatives)” value (TRP-2) is reported as 2,4-Dihydroxyacetophenone Oxime>2-Hydroxy-4-methoxyaceophenone Oxime.
For COc1ccc(C(C)=O)c(O)c1 [2-Hydroxy-4-methoxyaceophenone], the “order of efficacy (acetophenones)” value (TRP-2) was 2,4-Dihydroxyacetophenone>2-Hydroxy-4-methoxyaceophenone >>>Arbutin.
For OC[C@H]1O[C@@H](Oc2ccc(O)cc2)[C@H](O)[C@@H](O)[C@@H]1O [Arbutin, reference compound], the “order of efficacy (acetophenones)” value (TRP-2) was 2-Hydroxy-4-methoxyaceophenone >>>Arbutin.
For O=C(NCCCCN1CCOCC1)c1cc2ccccc2o1 [CL-82198], the “inhibition of MMP-13” value (MMP-13) is given as “weak inhibition”, the “activity against MMP-9” value (MMP-9) is given as “complete lack of activity” and the “activity against MMP-1” value (MMP-1) is given as “complete lack of activity”.
In the case of Cc1cc(C)c(N(Cc2ccccc2)S(=O)(=O)c2ccc(OCCNC(=O)c3cc4ccccc4o3)cc2)c(C(=O)NO)c1 [WAY-170523], the “inhibition of MMP-13” value (MMP-13) is listed as “potent”.
